In US8193225B2, “Isoxazole amides, derivatives and methods of chemical induction of neurogenesis” (priority 2006, dated 2012):
“Also recorded” adds a separate entry of the source.

Columns and labels:
[1] = system: HCN cells; test: in vitro neuronal differentiation of HCN cells (morphology, Tuj1 staining); assay type: cell-based, rat; settings: for morphologic neuronal differentiation of NPCs: 25 μM AMPA or 50 μM Muscimol; for effect of inhibitor on Isx-9 neurogenic activity (Tuj1+ cells): Isx-9-treated HCN cells, KN93 2 d cultures
[2] = system: neuroD-luciferase; test: neuroD-luciferase reporter gene assay in HCN cells; assay type: cell-based, rat; settings: for effect of inhibitor on neuroD-luc activity of Isx/Isx-9-treated cells: inhibitor added to Isx/Isx-9-treated HCNs/NPCs, 24 h
[3] = system: MEF2 reporter gene (3XMRE-luc); test: MEF2 reporter gene (3XMRE-luc) assay in HCN cells; assay type: cell-based, rat; settings: Isx-9-treated HCN cells; KN93, KN92 5 μM (10, 5, 1 μM), G66976 200 nM
[4] = system: HDAC5; test: protein blotting of phospho-HDAC5, HDAC4 and phospho-CaMKII in HCN cells; assay type: cell-based, rat; settings: Isx/Isx-9-treated NSCs; KN93, KN92 5 μM
[5] = system: pHDAC5:14-3-3-luciferase; test: mammalian 2-hybrid luciferase assay (pHDAC5:14-3-3-luciferase); assay type: cell-based, rat; settings: Isx-9-treated NSCs
Method: FIGS. 5A-F—CaMK is the major HDAC kinase activated by Isx small-molecules in NSCs. […] The doses of KN93 and KN92 in reporter assays were 10, 5, and 1 μM. (FIG. 5D) A schematic diagram of a mammalian 2-hybrid luciferase assay system (pHDAC5:14-3-3-luciferase) which is dependent on the interaction of HDAC5 and 14-3-3. […] (FIG. 5E) Shown are representative images and quantification of the percentage of Isx-9-treated HCNs showing GFP-HDAC5 localization in nuclear (Nuc), cytoplasmic (Cyto), or both compartments (Nuc/Cyto) with and without KN93 or KN92 treatment after 24 h. […] Scale bar: 5 μm. Values in […] represent the average of 12 replicates±SD. Values in FIG. 5E represent the average of 2 replicates+SD of one representative experiment from two independent experiments.
Reporter gene assay. All reporter gene assays were done in 96-well format, and each data point represents the average of 12 replicates. Reporter genes included neuroD-, gIuR2-, MREx3-, NR1-, and pHDAC5:14-3-3-luciferase and each well contained ˜25,000 cells in a volume of 100 μl. 5×10^6 HCN cells were transfected with 5 μg DNA by electroporation (Amaxa) and plated in growth media overnight. In the case of pHDAC5:14-3-3-luciferase, cells were transfected with 2 μg of each plasmid. Compounds were added the day following transfection and luciferase assays were performed 24 or 48 h later. […]

[6] = system: HCN cells; test: RT-PCR and protein blotting of gene expression in HCN cells; assay type: cell-based, rat; settings: NPCs, 50 μM Muscimol
[7] = system: Nkx2.5-luc; test: Nkx2.5-luc reporter in P19CL6 clone #5-1; assay type: cell-based, mouse
From the text: Assay development. An Nkx2.5-luc transgene was constructed by replacing the two coding sequence exons of NRx2.5 locus from the ATG with the coding sequence of luc (from pGL3-basic vector, Promega) in an ˜180,000 base pair-long BAC (FIG. 11). The recombinant BAC DNA was introduced into pluripotent P19CL6 cells using Lipofectamine-2000 (Invitrogen) and neo^R clones were selected, and tested for chemically inducible luc activity with sodium butyrate (NaB). #5-1, a clonal stem cell line with low basal and at least a 4-fold higher NaB-inducible luciferase activity compared to vehicle control (DMSO), yielding a Z′ value of 0.7 in 384-well plate format (Zhang et al. 1999), was chosen for the HTS.

[8] = system: HCN cells; test: cell death in HCN cells (propidium iodide/Hoescht live staining); assay type: cell-based, rat; settings: 2 μM Q-VD-Oph
Method: Neural stem cell culture, in vitro differentiation, and CaMK inhibitor studies. The hippocampal neural stem/progenitor (NSC) line used in this study (HCN cells) were originally isolated from adult (8-10 wks old) female Fisher 344 rats and have been characterized previously (Gage et al., 1995; Palmer et al., 1997). HCN cells were cultured in DMEM:F12 (Omega Scientific) with N2 supplement (Invitrogen) and basic fibroblast growth factor (20 ng/ml FGF-2) (PeproTech). The mouse whole brain neural stem/progenitors (MWB) were derived from adult (8-10 wks old) C57BL/6 mice that have been characterized previously (Ray and Gage, 2006). […]
Immunostaining, GFP-HDAC5 visualization, and fluorescence microscopy. […] Quantification of cell phenotype was done by sampling 6-8 random fields in each well and counting a total of 250-500 cells at 20× magnification. […] For quantification of live/dead cells, images were taken of cultures live-stained with propidium iodide and Hoescht 33342 at 20× magnification, and 500-1000 cells were counted by sampling 6-8 random fields in each well. For quantification of HDAC5 subcellular localization, 20× images were taken of live cultures, and 40-50 GFP+ cells were counted by sampling 3 random fields in each well. […]

## Cc1onc(O)c1CC(N)C(=O)O (stereo not drawn) [AMPA, α-amino-3-hydroxy-5-methyl isoxazole-4-proprionic acid]
[1]
  morphologic neuronal differentiation of NPCs: failed to induce morphologic neuronal differentiation

## Cn1c2ccccc2c2c3c(c4c5ccccc5n(CCC#N)c4c21)CNC3=O [Isx G66976]
[2]
  effect of inhibitor on neuroD-luc activity of Isx/Isx-9-treated cells: did not significantly affect Isx-induced reporter gene expression
[3]
  effect of kinase inhibitor on Isx-9-mediated MEF2 reporter activation: did not significantly affect Isx-induced reporter gene expression; also recorded: completely ineffective
[4]
  effect of inhibitor on phospho-HDAC5 and phospho-CaMKII levels: did not

## COc1ccc(S(=O)(=O)Nc2ccccc2CN(C)C/C=C/c2ccc(Cl)cc2)cc1 [KN92]
[3]
  effect of kinase inhibitor on Isx-9-mediated MEF2 reporter activation: had no effect
[5]
  HDAC5 kinase activity (pHDAC5:14-3-3-luciferase): not
[4]
  effect of inhibitor on phospho-HDAC5 and phospho-CaMKII levels: had no effect

## COc1ccc(S(=O)(=O)N(CCO)c2ccccc2CN(C)C/C=C/c2ccc(Cl)cc2)cc1 [KN93]
[2]
  effect of inhibitor on neuroD-luc activity of Isx/Isx-9-treated cells: extremely effective in blocking Isx-mediated reporter gene expression
[3]
  effect of kinase inhibitor on Isx-9-mediated MEF2 reporter activation: extremely effective in blocking Isx-mediated reporter gene expression; also recorded: blocked Isx-9-mediated MEF2 reporter activation
[5]
  HDAC5 kinase activity (pHDAC5:14-3-3-luciferase): completely blocked HDAC5 kinase activity
[1]
  effect of inhibitor on Isx-9 neurogenic activity (Tuj1+ cells): resulted in an inhibition of Isx-9 neurogenic activity
[4]
  effect of inhibitor on phospho-HDAC5 and phospho-CaMKII levels: blocked HDAC5 phosphorylation; also recorded: decreased phospho-HDAC5 and active phospho-CaMKII levels

## C[C@]12N[C@H](Cc3ccccc31)c1ccccc12 [MK801]
[2]
  effect of inhibitor on neuroD-luc activity of Isx/Isx-9-treated cells: small but significant decrease; also recorded: attenuated neuroD-luc activity

## NCc1cc(O)no1 [Muscimol, 5-aminomethyl-3-hydroxy-isoxazole]
[2]; NPCs, 15 μM Muscimol
  neuroD-luciferase activity: an increase in neuroD-luciferase activity
[1]
  morphologic neuronal differentiation of NPCs: failed to induce morphologic neuronal differentiation
[6]
  GluR2/3 protein expression: increase

## CCCC(=O)[O-].[Na+] [NaB, sodium butyrate]
[7]
  inducible luciferase activity compared to vehicle control (DMSO): ≥ 4 fold

## CC(C)[C@H](NC(=O)c1ccc2ccccc2n1)C(=O)N[C@@H](CC(=O)O)C(=O)COc1c(F)cccc1F [Q-VD-Oph]
[1]
  effect of inhibitor on Isx-9 neurogenic activity (Tuj1+ cells): does not further increase Tuj1+ cells
[8]
  cell death in Isx-9-treated HCNs: blocks cell death
